Marks after values point to notes of the source that are not given here.
How the values were obtained:
[1] = In vitro release of latanoprost and latanoprostene BUNOD in PBS after extemporaneous loading on MS5; type: physicochemical; conditions: for elution after 5 weeks of incubation: loaded on MS5, PBS 37 °C (FIG. 9); for % of prostaglandin analogues release after 10 min in PBS / % of prostaglandin analogues release after 1 day in PBS / % of prostaglandin analogues release after 7 days in PBS / % of prostaglandin analogues release after 18 days in PBS: loaded on sterile MS5, PBS pH 7.4, 37 °C
Method: Then, immediately after the loading step, 50 mL of PBS (Sigma P-5368; 10 mM phosphate buffered saline; NaCl 0,136 M; KCl 0,0027 M; pH 7.4) was added to the microspheres loaded with latanoprost or latanoprostene BUNOD for the in vitro drug release (37° C., 150 rpm). The medium was completely renewed after each sample collection (10 min, 2 h, 24 h and every 3-4 days during 5 weeks). The amounts of prostaglandin analogues in PBS supernatants were determined by RP-HPLC at 210 nm for latanoprost and latanoprostene BUNOD on a C18 column (46×150 mm) using a mobile phase made of acetonitrile/water containing 0.1% TFA (60:40, v/v) at a flow rate of 1 mL/min in the isocratic mode at 25° C. The results are summarized in Table 7 and in FIG. 9 for each drug.

[2] = Extemporaneous loading of latanoprost and latanoprostene BUNOD on sterile MS5; type: physicochemical; conditions: for Drug loading on MS5: extemporaneous loading on freeze-dried e-beam sterilized MS5, 5 min room temperature; for loading efficiencies (%) on MS5: extemporaneous loading on sterile MS5, 5 min room temperature
Method: After the sieving step of MS5, 100 μL or 250 μL of pellets were suspended in 5 mL of a solution containing 2.5% (w/v) of mannitol. After homogenization, the pellets of microspheres were recovered, frozen-dried and sterilized by e-beam radiation (25 kilograys).
Latanoprost Loading To the dry and sterile pellets of microspheres (250 μL), 500 μL of latanoprost solution (TRC-L177280-10MG) at 2 mg/mL in acetonitrile/water mixture (70/30) were added. After 5 min of mixing at room temperature under stirring on a tube rotator (=30 rpm), the supernatants were removed for the measurement of unbound latanoprost by RP-HPLC at 210 nm on a C18 column (46×150 mm) using a mobile phase made of acetonitrile/water containing 0.1% TFA (60:40, v/v) at a flow rate of 1 mL/min in the isocratic mode at 25° C. The amount of latanoprost in supernatants was obtained by extrapolation from a standard curve (0.5 to 20 μg/mL). The loaded dose was calculated by subtracting the final amount of latanoprost from the initial amount. The latanoprost loading for 1 mL of beads was obtained by multiplying by 4 the quantity loaded on 250 μL of MS.
Latanoprostene BUNOD is a nitric oxide (NO)-donating prostaglandin F2a analogue approved for the reduction of intraocular pressure in patients with open-angle glaucoma or ocular hypertension. To the dry and sterile pellets of microspheres (100 μL), 700 μL of latanoprotene BUNOD (TRC-L177335-2.5MG) solution at 1 mg/mL in acetonitrile/water mixture (70/30%) were added. After 5 min of mixing at room temperature under stirring on a tube rotator (=30 rpm), the supernatants were removed for the measurement of unbound drug by RP-HPLC at 210 nm on a C18 column (46×150 mm) using a mobile phase made of acetonitrile/water containing 0.1% TFA (60:40, v/v) at a flow rate of 1 mL/min in the isocratic mode at 25° C. The amount of latanoprotene BUNOD in supernatants was obtained by extrapolation from a standard curve (0.25 to 25 μg/mL). The loaded dose was calculated by subtracting the final amount of latanoprotene BUNOD from the initial amount. The latanoprotene BUNOD loading for 1 mL of beads was obtained by multiplying by 10 the quantity loaded on 100 μL of MS.

[3] = pubchem.ncbi.nlm.nih.gov; cited from earlier work
[4] = In vitro release of travoprost in PBS after extemporaneous loading; type: physicochemical; conditions: from MS5 after extemporaneous loading; PBS 37 °C (FIG. 7)
Method: Then, PBS (50 mL) was added to the microspheres loaded with travoprost for the in vitro drug release experiment (37° C., 150 rpm). The medium was completely renewed after each sample collection. The amounts of travoprost in PBS supernatants were determined by RP-HPLC at 222 nm on a C18 column (46×150 mm) using a mobile phase made of acetonitrile/water containing 0.1% TFA (60:40, v/v) at a flow rate of 1 mL/min in the isocratic mode at 25° C.

| SMILES | elution after 5 weeks of incubation [1] | % of prostaglandin analogues release after 10 min in PBS [1] | % of prostaglandin analogues release after 1 day in PBS [1] | % of prostaglandin analogues release after 7 days in PBS [1] | % of prostaglandin analogues release after 18 days in PBS [1] | Drug loading on MS5 [2] | loading efficiencies (%) on MS5 [2] | amount of drug loaded on the degradable microsphere MS5 ([2]; extemporaneous loading on sterile MS5) | Partition coefficient P (Log P) of the prostaglandin analogues [3] | duration of sustained travoprost release [4] | initial burst release of travoprost [4] |
| --- | --- | --- | --- | --- | --- | --- | --- | --- | --- | --- | --- |
| CC(C)OC(=O)CCC/C=C\C[C@@H]1[C@@H](CC[C@@H](O)CCc2ccccc2)[C@H](O)C[C@@H]1O [Latanoprost] | practically complete | 8.7 ± 0.5% | 42.3 ± 10% | 59.7 ± 11.1% | 77.5 ± 11.9% | 3.83 ± 0.07 mg/mL | (98%)** |  |  |  |  |
| O=C(CCC/C=C\C[C@@H]1[C@@H](CC[C@@H](O)CCc2ccccc2)[C@H](O)C[C@@H]1O)OCCCCO[N+](=O)[O-] [Latanoprostene BUNOD] | practically complete | 7.04 ± 2.2% | 32.4 ± 4.1% | 45.2 ± 4.5% | 60 ± 6.2% | 6.58 ± 0.1 mg/mL | (94%) | at least 6.5 mg | 3.79-3.94 |  |  |
| CC(C)OC(=O)CCC/C=C\C[C@@H]1[C@@H](/C=C/[C@@H](O)COc2cccc(C(F)(F)F)c2)[C@H](O)C[C@@H]1O [travoprost] |  |  |  |  |  |  |  |  |  | at least two months | 3.5% |

Source: patent publication US20230241017A1, “Hydrophilic Degradable Microsphere for Delivering Travoprost” (Occlugel, priority 2020, published 2023)
